Test results taken from patent US20210364497A1, “IFN-beta Reporter System for Primary Cells” (UNIVERSITY OF MIAMI, priority 2018, published 2021).

Test system: Human IFNβ promoter
Test: GLuc/SEAP dual reporter assay of the IFNβ promoter in hTERT-pIFNβ-GLuc cells
Assay type: cell-based
Conditions: FIG. 3B; hTERT-pIFNB-Gluc cells treated, 3 μg/ml, 24 hours
Method: Human IFNβ promoter (sequence in FIG. 1) was cloned into Lentiviral vector pEZX-LvPG04 at GeneCopoeia. Lentiviral plasmid was co-transfected with LentiViral Package System (LENT-PACT™) into 293T cells using Lipofectamine 2000. 293T medium containing Lentiviral particles was collected 48 hours post transfection, filtered through 0.2 μM filter, and transduced to pre-seeded hTERT cells in the presence of 10 μg/ml polybrene. Transduction was repeated twice in 2 consecutive days. 48 hours after the last transduction, hTERT cells were selected by 2 μg/ml puromycin for 4 weeks. Single colonies of transduced hTERT cells were puromycin selected, and expanded for IENβ promoter-luciferase assay validation.
To test the establishment of GLuc/SEAP-ρIENs1 reporter system, hTERT clones were mock treated (lipo) or transfected with synthetic double-stranded DNA (dsDNA). hTERT-ρIENβ-GLuc cells were transfected with synthetic 90-mer double-stranded DNA (dsDNA90) at 3 μg/ml using Lipofectamine 2000. 24 hours later, cell media was collected and analyzed for GLuc and SEAP activity using the Secrete-Pair Dual Luminescence Assay Kits (GeneCopoeia).
In additional experiments, hTERT-pIFNB-Gluc cells were treated with LPS1 (1 μg/ml) or transfected with dsDNA90 (3 μg/ml) or 2′-3′ cGAMP (3 μg/ml) for 24 hours. […]

## poly I:C
  GLuc expression (Gluc activity normalized by SEAP internal control): activated
